The target of assay [1] is T1, DDR1 kinase in DDR1-expressing U2OS cells (Homo sapiens, UniProt Q08345).
T1 construct: host or cells: U2OS
As to the kind of experiment: DDR1 kinase inhibitory effect in DDR1-expressing U2OS cells (PathHunter, type I collagen stimulation). The format is cell-based. The conditions noted are these: type I collagen 50 μg/mL, 10% FBS, read-out: DDR-1 IC50. The method, then: Test compounds in DMSO were prepared at 10 mM and diluted with DMSO to final concentrations of 1000, 100, 10, 1, and 0.1 μM. These solutions were diluted further with E-MEM medium (Fujifilm Wako Pure Chemical Industries, 051-07615) containing 10% fetal bovine serum (FBS, Gibco, 10270106) to 60,000, 6,000, 600, 60, 6, and 0.6 nM to obtain test sample solutions.
DDR1-expressing U2OS cells (DiscoverX, 93-0894C3) suspended at 2.5×10^5 cells/mL in 10% FBS+E-MEM medium were seeded in 384-well plates (DiscoverX, 92-0013) in 20 μL portions and cultured overnight at 37° C. and 5% CO2.
The next day, the test sample solutions as prepared were added at 5 μL/well to final concentrations of 10,000, 1,000, 100, 10, 1, and 0.1 nM. After incubation at 37° C. and 5% CO2 for 1 hour, type I collagen (Nitta Gelatin, 631-00771) was added at 5 μL/well to a final concentration of 50 μg/mL, and cultured overnight at 37° C. and 5% CO2.
The next day, the plate was left at room temperature for 1 hour, after which 5 μL/well of detection solution was added according to the instruction manual for the PathHunter (registered trademark) Detection Kit (DiscoverX, 93-0001). […] The test was performed in duplicate.

Assay [2] deals with anti-glomerular basement membrane antibody-induced nephritis model. Nature of the assay: In vivo efficacy study using anti-glomerular basement membrane antibody-induced nephritis model. Also noted: species or system WKY/NCrlCrlj rats. The conditions noted are these: rat, 24-hour urine. The protocol:
The test compound was weighed and suspended in 0.5% methylcellulose (Shin-Etsu Chemical Co., Ltd.)+99.5% Otsuka distilled water (Otsuka Pharmaceutical Factory) to prepare a test sample solution for administration. 300 μL of phosphate buffered saline (Wako, 045-29795) containing 33.3 μg/mL anti-glomerular basement membrane antibody (Chondrex, 70221) was intravenously administered into the tail vein of WKY/NCrlCrlj rats (7-week-old males). 7 days after, the test sample was administered twice a day for 7 days, and the rats were moved to a metabolism/urine collection cage from the 6th to 7th days of the starting of the administration, and the 24-hour urine was collected. The weight of the collected urine was measured. 150 μL of urine was transferred to a sample cup (650-M, BMBio ST). The albumin concentration in urine was measured using a JCA-BM6050 automatic analyzer (JEOL). The amount of albumin in urine was determined with correction for the measured urine weight. The amounts of albumin in urine in the group without administration of anti-glomerular basement membrane antibody and the group with administration of vehicle were set at 0% and 100%, respectively, and the ratio of the amount of albumin in urine in the group administered with the test compound was calculated.

Assay [3] concerns the target T2, DDR1 protein (Homo sapiens, UniProt Q08345).
T2 construct: purchased Carna Biosciences 08-113
As to the kind of experiment: Evaluation of DDR1 kinase inhibitory activity (LANCE Ultra TR-FRET). It is filed as biochemical. The conditions noted are these: DDR1 protein 0.5 nM, ATP 100 μM, 2 hours at room temperature; read-out: DDR-1 IC50. The protocol: The test was performed in duplicate.
In general terms: Time-resolved FRET reads energy transfer from a long-lived donor to a nearby acceptor.

One may read the IC50 as the concentration that gives 50% inhibition.

T1 sequence (Q08345 19-913): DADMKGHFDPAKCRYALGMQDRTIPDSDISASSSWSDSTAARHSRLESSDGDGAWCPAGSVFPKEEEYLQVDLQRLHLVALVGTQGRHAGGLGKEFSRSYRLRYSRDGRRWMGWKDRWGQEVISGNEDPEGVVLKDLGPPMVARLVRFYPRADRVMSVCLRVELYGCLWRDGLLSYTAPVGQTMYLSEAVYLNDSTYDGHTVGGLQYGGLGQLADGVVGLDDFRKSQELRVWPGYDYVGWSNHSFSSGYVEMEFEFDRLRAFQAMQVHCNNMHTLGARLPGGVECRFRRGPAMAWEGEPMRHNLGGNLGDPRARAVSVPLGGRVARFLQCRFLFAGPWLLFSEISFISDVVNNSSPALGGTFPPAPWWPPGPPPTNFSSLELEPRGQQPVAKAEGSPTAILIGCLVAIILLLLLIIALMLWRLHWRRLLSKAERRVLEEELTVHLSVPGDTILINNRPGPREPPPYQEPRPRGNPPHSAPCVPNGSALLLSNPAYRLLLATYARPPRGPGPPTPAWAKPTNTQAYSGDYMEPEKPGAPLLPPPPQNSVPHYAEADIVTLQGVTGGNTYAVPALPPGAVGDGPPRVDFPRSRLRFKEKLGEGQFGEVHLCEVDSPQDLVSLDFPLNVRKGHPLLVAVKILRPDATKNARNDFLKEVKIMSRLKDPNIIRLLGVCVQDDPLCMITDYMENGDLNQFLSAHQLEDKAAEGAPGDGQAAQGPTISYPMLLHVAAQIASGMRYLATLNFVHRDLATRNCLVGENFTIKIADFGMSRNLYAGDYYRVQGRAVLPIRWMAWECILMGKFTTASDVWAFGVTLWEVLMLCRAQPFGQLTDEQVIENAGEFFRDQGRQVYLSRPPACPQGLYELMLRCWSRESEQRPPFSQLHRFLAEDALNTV
T2 sequence (Q08345 19-876 isoform Q08345-2 limits assumed): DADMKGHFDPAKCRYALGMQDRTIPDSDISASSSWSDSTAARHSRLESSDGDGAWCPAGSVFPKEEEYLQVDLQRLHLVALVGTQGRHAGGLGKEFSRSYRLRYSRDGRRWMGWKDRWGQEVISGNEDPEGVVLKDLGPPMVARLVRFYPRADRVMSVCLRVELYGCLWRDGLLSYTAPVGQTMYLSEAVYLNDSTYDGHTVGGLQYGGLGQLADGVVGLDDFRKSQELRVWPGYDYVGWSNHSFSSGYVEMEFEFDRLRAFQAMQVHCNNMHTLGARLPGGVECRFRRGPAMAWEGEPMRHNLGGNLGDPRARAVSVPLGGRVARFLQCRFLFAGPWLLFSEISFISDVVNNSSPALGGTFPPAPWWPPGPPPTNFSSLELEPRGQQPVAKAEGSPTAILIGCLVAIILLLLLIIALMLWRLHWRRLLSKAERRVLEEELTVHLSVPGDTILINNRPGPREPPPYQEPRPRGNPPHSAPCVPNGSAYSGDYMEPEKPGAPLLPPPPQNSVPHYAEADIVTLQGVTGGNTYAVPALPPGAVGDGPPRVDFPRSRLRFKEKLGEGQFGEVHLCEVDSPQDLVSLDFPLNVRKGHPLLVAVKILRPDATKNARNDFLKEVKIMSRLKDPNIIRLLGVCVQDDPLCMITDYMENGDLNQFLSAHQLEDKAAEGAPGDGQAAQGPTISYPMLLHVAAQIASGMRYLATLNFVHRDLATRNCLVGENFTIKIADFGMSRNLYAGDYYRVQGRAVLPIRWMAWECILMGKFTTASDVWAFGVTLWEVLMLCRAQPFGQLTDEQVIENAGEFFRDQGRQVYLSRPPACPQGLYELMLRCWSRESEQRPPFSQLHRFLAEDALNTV

For the molecule `Nc1cnc(/C(F)=C/c2cc(C(=O)N[C@H]3C[C@H](OC(F)(F)F)C[C@@H]3O)ccc2OC(F)F)cn1` [Example 10, 3-[(1Z)-2-(5-Aminopyrazin-2-yl)-2-fluoroethenyl]-4-(difluoromethoxy)-N-[(1S,2S,4S)-2-hydroxy-4-(trifluoromethoxy)cyclopentyl]benzamide], the results for the IC50 in assay [1] and in assay [3] were 72 nM and 1.2 nM, respectively. Moreover, the “Urinary albumin (% of vehicle-administered group)” value in assay [2] (dose 10 mg/kg twice a day for 7 days) was 69 % of vehicle-administered grou.

Regarding `NC(=O)c1ncc2cc(-c3cc(C(=O)N[C@H]4CCCC[C@@H]4O)ccc3C(F)(F)F)ccn12` [Example 14, 7-(5-{[(1S,2S)-2-Hydroxycyclohexyl]carbamoyl}-2-(trifluoromethyl)phenyl)imidazo[1,5-a]pyridine-3-carboxamide], the results for the IC50 in assay [1] and in assay [3] were 83 nM and 2.5 nM, respectively. The “Urinary albumin (% of vehicle-administered group)” value in assay [2] (dose 50 mg/kg twice a day for 7 days) was 76 % of vehicle-administered grou.

Source of the values: patent US20260242343A1, “COMPOUND SERVING AS DDR1 KINASE INHIBITOR, AND MEDICINE” (NIPPON SHINYAKU CO., LTD., priority 2022, published 2026).
